Molecular target: T1, DMGDH (His6-DMGDH, mature human dimethylglycine dehydrogenase) (Homo sapiens, UniProt Q9UI17)
T1 sequence (Q9UI17 51-866): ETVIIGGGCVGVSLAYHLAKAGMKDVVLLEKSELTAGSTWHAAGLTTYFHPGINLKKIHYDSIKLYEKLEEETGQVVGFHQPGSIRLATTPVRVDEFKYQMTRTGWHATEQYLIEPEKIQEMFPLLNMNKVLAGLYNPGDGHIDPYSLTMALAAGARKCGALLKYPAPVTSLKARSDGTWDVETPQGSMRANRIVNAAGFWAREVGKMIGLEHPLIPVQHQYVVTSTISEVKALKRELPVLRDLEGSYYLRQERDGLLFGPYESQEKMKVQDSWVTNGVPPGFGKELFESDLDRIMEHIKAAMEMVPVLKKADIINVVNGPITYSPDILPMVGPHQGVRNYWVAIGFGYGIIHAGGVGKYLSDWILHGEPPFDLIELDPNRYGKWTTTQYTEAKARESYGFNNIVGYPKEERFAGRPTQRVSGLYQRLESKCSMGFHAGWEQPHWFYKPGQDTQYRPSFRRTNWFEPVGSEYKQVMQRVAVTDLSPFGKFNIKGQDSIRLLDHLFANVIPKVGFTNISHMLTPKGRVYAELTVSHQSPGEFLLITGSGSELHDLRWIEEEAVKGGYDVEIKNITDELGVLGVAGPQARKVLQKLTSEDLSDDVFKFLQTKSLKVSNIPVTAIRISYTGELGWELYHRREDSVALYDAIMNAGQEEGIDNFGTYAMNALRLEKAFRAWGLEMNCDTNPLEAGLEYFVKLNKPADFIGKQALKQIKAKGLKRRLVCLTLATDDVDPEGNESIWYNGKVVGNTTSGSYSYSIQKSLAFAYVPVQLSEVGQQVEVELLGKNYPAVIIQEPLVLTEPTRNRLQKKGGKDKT
Assay: ferricenium reduction at […] nm
Assay type: biochemical
Settings: dimethylglycine as substrate, Hepes pH 7.5, 25°C

% decrease in Vmax at 4 μmol/L: ~ 25%
Structure (SMILES): Nc1nc2c(c(=O)[nH]1)N[C@@H](CNc1ccc(C(=O)N[C@@H](CCC(=O)O)C(=O)O)cc1)CN2 [tetrahydrofolate]
